In US7528138B2, “Pyrazolo[1,5-a]pyrimidines useful as inhibitors of protein kinases” (Vertex Pharmaceuticals Incorporated, priority 2004, dated 2009):

Assays:
Type in all cases: biochemical
JAK3 = molecular target: T1, JAK3 (Homo sapiens, UniProt P52333); experiment: JAK3 Inhibition Assay, 33P incorporation; details: enzyme inhibition data (Ki), Table 11
T1 sequence (P52333 1-1124): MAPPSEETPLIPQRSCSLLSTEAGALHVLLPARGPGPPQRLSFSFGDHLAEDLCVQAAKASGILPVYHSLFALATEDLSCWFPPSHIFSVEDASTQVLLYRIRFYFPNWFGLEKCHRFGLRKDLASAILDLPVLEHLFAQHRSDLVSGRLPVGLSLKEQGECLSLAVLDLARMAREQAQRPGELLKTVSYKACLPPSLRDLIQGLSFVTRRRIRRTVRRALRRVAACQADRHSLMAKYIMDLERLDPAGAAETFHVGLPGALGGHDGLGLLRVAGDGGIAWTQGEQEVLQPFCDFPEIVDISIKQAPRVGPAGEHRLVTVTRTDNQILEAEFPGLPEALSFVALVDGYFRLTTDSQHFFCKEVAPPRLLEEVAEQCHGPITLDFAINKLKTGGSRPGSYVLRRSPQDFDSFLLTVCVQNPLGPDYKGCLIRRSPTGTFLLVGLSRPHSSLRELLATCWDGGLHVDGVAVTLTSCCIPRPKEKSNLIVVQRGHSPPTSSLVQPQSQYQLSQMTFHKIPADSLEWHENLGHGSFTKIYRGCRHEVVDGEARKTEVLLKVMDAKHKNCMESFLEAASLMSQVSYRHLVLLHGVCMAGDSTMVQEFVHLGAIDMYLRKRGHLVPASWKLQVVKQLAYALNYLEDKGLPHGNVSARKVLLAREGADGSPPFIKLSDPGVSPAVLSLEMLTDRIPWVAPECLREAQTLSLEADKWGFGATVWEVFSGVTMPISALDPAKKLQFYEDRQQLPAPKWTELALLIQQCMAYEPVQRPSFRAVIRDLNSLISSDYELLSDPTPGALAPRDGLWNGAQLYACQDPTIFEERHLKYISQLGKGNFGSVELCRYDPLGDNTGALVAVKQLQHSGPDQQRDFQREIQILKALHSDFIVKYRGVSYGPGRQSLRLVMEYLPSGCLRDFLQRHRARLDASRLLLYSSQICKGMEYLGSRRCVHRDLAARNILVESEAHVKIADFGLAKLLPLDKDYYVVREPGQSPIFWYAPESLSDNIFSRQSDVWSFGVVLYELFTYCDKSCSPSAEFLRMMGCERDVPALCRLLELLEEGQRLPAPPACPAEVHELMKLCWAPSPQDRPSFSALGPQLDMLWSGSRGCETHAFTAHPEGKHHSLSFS
Description: Reactions are carried out in a kinase buffer containing 100 mM HEPES (pH 7.4), 1 mM DTT, 10 mM MgCl2, 25 mM NaCl, and 0.01% BSA. Substrate concentrations in the assay are 5 μM ATP (200 uCi/μmole ATP) and 1 μM poly(Glu)4Tyr. Reactions are carried out at 25° C. and 1 nM JAK3. To each well of a 96 well polycarbonate plate is added 1.5 μl of a candidate JAK3 inhibitor along with 50 μl of kinase buffer containing 2 μM poly(Glu)4Tyr and 10 μM ATP. This is then mixed and 50 μl of kinase buffer containing 2 nM JAK3 enzyme is added to start the reaction. After 20 minutes at room temperature (25 C), the reaction is stopped with 50 μl of 20% trichloroacetic acid (TCA) that also contained 0.4 mM ATP. The entire contents of each well are then transferred to a 96 well glass fiber filter plate using a TomTek Cell Harvester. After washing, 60 μl of scintillation fluid is added and ^33P incorporation detected on a Perkin Elmer TopCount.

c-Met = c-Met (Homo sapiens, UniProt P08581); experiment: c-Met Inhibition Assay, coupled enzyme system; details: enzyme inhibition data (Ki), Table 11
Description: Compounds are screened for their ability to inhibit c-Met kinase activity using a standard coupled enzyme system (Fox et al., Protein Sci. 1998, 7, 2249). Reactions are carried out in a solution containing 100 mM HEPES (pH 7.5), 10 mM MgCl2, 25 mM NaCl, 300 μM NADH, 1 mM DTT, and 1.5% DMSO. Final substrate concentrations in the assay are 200 μM ATP (Sigma Chemicals, St Louis, Mo.) and 10 μM polyGluTyr (Sigma Chemical Company, St. Louis). Reactions are carried out at 30° C. and 80 nM c-Met. Final concentrations of the components of the coupled enzyme system are 2.5 mM phosphoenolpyruvate, 300 μM NADH, 30 μg/ml pyruvate kinase and 10 μg/ml lactate dehydrogenase.
An assay stock buffer solution is prepared containing all of the reagents listed above with the exception of ATP and a test compound of the present invention. The assay stock buffer solution (175 μl) is incubated in a 96 well plate with 5 μl of the test compound of the present invention at final concentrations spanning 0.006 μM to 12.5 μM at 30° C. for 10 minutes. Typically, a 12-point titration is conducted by preparing serial dilutions (from 10 mM compound stocks) with DMSO of the test compounds of the present invention in daughter plates. The reaction is initiated by the addition of 20 μl of ATP (final concentration 200 μM). Rates of reaction are obtained using a Molecular Devices Spectramax plate reader (Sunnyvale, Calif.) over 10 minutes at 30° C. The Ki values are determined from the rate data as a function of inhibitor concentration.

Itk = molecular target: T2, Itk (Homo sapiens, UniProt Q08881); experiment: ITK Inhibition Assay (Radiometric), radioactive-phosphate incorporation; details: enzyme inhibition data (Ki), Table 11; radiometric or UV assay not stated
T2 sequence (Q08881 1-620): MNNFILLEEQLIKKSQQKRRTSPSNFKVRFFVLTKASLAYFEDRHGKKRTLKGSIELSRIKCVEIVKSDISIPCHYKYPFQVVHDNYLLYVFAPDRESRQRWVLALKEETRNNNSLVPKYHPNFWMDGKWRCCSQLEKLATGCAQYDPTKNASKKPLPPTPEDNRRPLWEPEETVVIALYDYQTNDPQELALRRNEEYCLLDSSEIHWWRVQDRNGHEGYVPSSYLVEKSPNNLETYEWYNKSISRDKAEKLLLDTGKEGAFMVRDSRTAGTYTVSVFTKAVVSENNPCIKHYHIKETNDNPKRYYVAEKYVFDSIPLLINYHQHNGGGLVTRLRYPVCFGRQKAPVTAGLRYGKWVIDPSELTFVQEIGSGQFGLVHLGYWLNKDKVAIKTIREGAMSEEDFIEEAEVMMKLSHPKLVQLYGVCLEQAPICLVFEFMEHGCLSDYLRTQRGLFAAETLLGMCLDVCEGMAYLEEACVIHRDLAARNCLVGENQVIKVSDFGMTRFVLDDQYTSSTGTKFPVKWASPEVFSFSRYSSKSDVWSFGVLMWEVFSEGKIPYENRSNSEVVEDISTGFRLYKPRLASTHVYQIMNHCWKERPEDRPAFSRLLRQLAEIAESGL
Description: Assays are carried out in a mixture of 20 mM MOPS (pH 7.0), 10 mM MgCl2, 0.1% BSA and 1 mM DTT. Final substrate concentrations in the assay are 7.5 μM [γ-33P]ATP (400 mCi 33P ATP/mmol ATP, Amersham Pharmacia Biotech/Sigma Chemicals) and 3 μM peptide (SAM68 protein D332-443). Assays are carried out at 25° C. in the presence of 50 nM Itk. An assay stock buffer solution is prepared containing all of the reagents listed above, with the exception of ATP and the test compound of interest. 50 μL of the stock solution is placed in a 96 well plate followed by addition of 2 μL of DMSO stock containing serial dilutions of the test compound (typically starting from a final concentration of 50 μM with 2-fold serial dilutions) in duplicate (final DMSO concentration 2%). The plate is pre-incubated for 10 minutes at 25° C. and the reaction initiated by addition of 50 μL [γ-33P]ATP (final concentration 7.5 μM).
The reaction is stopped after 10 minutes by the addition of […] 0.2M phosphoric acid+0.01% TWEEN 20. A multiscreen phosphocellulose filter 96-well plate (Millipore, Cat no. MAPHN0B50) is pretreated with 100 μL 0.2M phosphoric acid +0.01% TWEEN 20 prior to the addition of […] of the stopped assay mixture. The plate is washed with 4×200 μL 0.2M phosphoric acid+0.01% TWEEN 20. After drying, 30 μL Optiphase ‘SuperMix’ liquid scintillation cocktail (Perkin Elmer) is added to the well prior to scintillation counting (1450 Microbeta Liquid Scintillation Counter, Wallac).
Ki(app) data are calculated from non-linear regression analysis of the initial rate data using the Prism software package (GraphPad Prism version 3.0cx for Macintosh, GraphPad Software, San Diego Calif., USA).

Sequence of c-Met (P08581 25-1390): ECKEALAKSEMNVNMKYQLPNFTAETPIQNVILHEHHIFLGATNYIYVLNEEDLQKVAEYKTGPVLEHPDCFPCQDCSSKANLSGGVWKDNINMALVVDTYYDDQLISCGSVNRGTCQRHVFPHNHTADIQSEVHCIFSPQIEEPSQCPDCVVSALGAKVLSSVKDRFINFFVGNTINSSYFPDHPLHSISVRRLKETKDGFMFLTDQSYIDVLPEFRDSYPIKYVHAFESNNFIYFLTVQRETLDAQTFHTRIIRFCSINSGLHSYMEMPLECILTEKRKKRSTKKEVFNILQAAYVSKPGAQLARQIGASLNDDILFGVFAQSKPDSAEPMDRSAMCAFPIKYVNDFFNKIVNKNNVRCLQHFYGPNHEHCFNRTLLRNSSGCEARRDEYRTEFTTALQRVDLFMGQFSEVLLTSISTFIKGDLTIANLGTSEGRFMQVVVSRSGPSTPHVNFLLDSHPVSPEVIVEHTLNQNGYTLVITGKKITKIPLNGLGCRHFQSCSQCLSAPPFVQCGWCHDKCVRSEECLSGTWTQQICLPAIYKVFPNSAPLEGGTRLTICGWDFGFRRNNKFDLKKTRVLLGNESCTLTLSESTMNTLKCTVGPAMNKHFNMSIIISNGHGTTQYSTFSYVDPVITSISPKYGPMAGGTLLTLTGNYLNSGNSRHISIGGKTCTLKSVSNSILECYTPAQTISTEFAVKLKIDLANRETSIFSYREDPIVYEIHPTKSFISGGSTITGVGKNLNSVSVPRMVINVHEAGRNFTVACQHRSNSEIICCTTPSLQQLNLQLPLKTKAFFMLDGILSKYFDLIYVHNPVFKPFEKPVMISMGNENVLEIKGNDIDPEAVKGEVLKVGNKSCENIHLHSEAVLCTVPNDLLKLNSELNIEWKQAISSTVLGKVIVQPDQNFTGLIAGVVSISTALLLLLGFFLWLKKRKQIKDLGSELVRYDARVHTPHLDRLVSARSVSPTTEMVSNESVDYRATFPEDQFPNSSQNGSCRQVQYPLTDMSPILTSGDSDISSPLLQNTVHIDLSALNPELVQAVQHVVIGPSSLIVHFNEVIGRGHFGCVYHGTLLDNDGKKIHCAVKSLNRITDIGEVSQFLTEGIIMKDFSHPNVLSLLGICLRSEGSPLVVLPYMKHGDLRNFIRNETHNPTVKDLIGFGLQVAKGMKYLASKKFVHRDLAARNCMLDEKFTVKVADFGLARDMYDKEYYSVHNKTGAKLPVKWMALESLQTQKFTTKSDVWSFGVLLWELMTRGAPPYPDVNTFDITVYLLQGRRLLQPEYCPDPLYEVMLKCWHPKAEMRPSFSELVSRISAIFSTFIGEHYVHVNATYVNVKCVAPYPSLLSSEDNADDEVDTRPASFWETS

Ki (JAK3) [µM]	Ki (c-Met) [µM]	Ki (Itk) [µM]	Structure (SMILES)
> 5			Cc1ccn2nc(N)c(-c3ccccc3)c2n1 [Compound V-1]
> 5	0.5 to 5	0.5 to 5	COc1cccc(OC)c1-c1cnc2c(-c3ccccn3)c(N)nn2c1 [Compound V-3]
> 5	0.5 to 5	0.5 to 5	Cc1cccc(C)c1-c1cnc2c(-c3ccccn3)c(N)nn2c1 [Compound V-4]
> 5	0.5 to 5	0.5 to 5	Nc1nn2cc(-c3ccccc3C(F)(F)F)cnc2c1-c1ccccn1 [Compound V-5]
0.5 to 5	0.5 to 5	0.5 to 5	CC(=O)c1ccccc1-c1cnc2c(-c3ccccn3)c(N)nn2c1 [Compound V-6]
> 5	0.5 to 5	0.5 to 5	Cc1ccccc1-c1cnc2c(-c3ccccn3)c(N)nn2c1 [Compound V-7]
> 5	0.5 to 5	0.5 to 5	Nc1nn2cc(-c3ccccc3O)cnc2c1-c1ccccn1 [Compound V-8]
> 5	0.5 to 5	0.5 to 5	CCc1ccccc1-c1cnc2c(-c3ccccn3)c(N)nn2c1 [Compound V-9]
> 5	0.5 to 5	0.5 to 5	N#Cc1ccccc1-c1cnc2c(-c3ccccn3)c(N)nn2c1 [Compound V-10]
> 5	0.5 to 5	0.5 to 5	Nc1nn2cc(-c3ccccc3C(=O)O)cnc2c1-c1ccccn1 [Compound V-11]
> 5	0.5 to 5	0.5 to 5	Nc1nn2cc(-c3ccccc3C=O)cnc2c1-c1ccccn1 [Compound V-12]
> 5	0.5 to 5	0.5 to 5	Nc1nn2cc(-c3ccccc3F)cnc2c1-c1ccccn1 [Compound V-13]
> 5	0.5 to 5	0.5 to 5	Nc1nn2cc(-c3ccccc3-c3ccccc3)cnc2c1-c1ccccn1 [Compound V-15]
> 5	0.5 to 5	0.5 to 5	CS(=O)(=O)Nc1ccccc1-c1cnc2c(-c3ccccn3)c(N)nn2c1 [Compound V-16]
> 5	0.5 to 5	0.5 to 5	COC(=O)/C=C/c1ccccc1-c1cnc2c(-c3ccccn3)c(N)nn2c1 [Compound V-17]
> 5	0.5 to 5	0.5 to 5	Nc1nn2cc(-c3ccccc3OC(F)F)cnc2c1-c1ccccn1 [Compound V-19]
> 5	0.5 to 5	0.5 to 5	Nc1ccccc1-c1cnc2c(-c3ccccn3)c(N)nn2c1 [Compound V-20]
> 5	0.5 to 5	0.5 to 5	Nc1nn2cc(-c3ccccc3[N+](=O)[O-])cnc2c1-c1ccccn1 [Compound V-21]
> 5	0.5 to 5	0.5 to 5	CN(C)Cc1ccccc1-c1cnc2c(-c3ccccn3)c(N)nn2c1 [Compound V-23]
> 5		0.5 to 5	Nc1nn2cc(-c3cccc(C(=O)N4CCC(N5CCCC5)CC4)n3)cnc2c1-c1ccccn1 [Compound V-121]
> 5		0.5 to 5	Nc1nn2cc(-c3ccc(N4CCCC4)nc3)cnc2c1-c1ccccn1 [Compound V-143]
		< 0.5	Nc1nn2cc(-c3ccc(C=O)cc3)cnc2c1-c1ccccn1 [Compound V-193]
		< 0.5	N#Cc1ccc(-c2cnc3c(-c4ccccn4)c(N)nn3c2)cc1 [Compound V-196]
		< 0.5	Nc1nn2cc(-c3ccc(CCl)cc3)cnc2c1-c1ccccn1 [Compound V-203]
		< 0.5	Nc1nn2cc(-c3cccc(CCl)c3)cnc2c1-c1ccccn1 [Compound V-210]
		0.5 to 5	COc1ccc(-c2cn3nc(N)c(-c4ccccn4)c3nc2C(F)(F)F)cc1 [Compound V-218]
		0.5 to 5	COc1ccc(-c2cnc3c(-c4ccc(C)cn4)c(N)nn3c2)cc1 [Compound V-220]
	< 0.5	0.5 to 5	Cc1cnc2c(-c3cc(N[C@H](C)c4ccccc4)ncn3)c(N)nn2c1 [Compound V-300]
	0.5 to 5	0.5 to 5	Cc1cnc2c(-c3cc(N[C@@H](C)c4ccccc4)ncn3)c(N)nn2c1 [Compound V-301]
	< 0.5	0.5 to 5	CCN(CC)C(=O)C1CCCN(c2cc(-c3c(N)nn4cc(C)cnc34)ncn2)C1 (centres unmarked) [Compound V-338]
